Experimental findings from US20020081266A1, “Spray dried powders for pulmonary or nasal administration” (Norton Healthcare Ltd., priority 1999, published 2002) are described below.

For data set [1] the following is noted: starting material.
Procedure: Thermogravimetric Analysis (TGA)
Thermogravimetric analysis was carried out using a Mettler TG 50 linked to a Mettler MT5 balance. Data was processed using Mettler Toledo STAR software Version 5.1 with a Solaris operating system. Sample weights were between 5 and 10 mg and analysis was carried out under nitrogen purge. The scans were run from 30 to 350° C. at a heating rate of 10° C./minute. Two TGA scans were obtained for each system.
The nature of data set [2]: Scanning electron microscopy (SEM) particle diameter. As to conditions: for Particle diameters by SEM: spray dried from ethanolic solution. The class given is physicochemical. An excerpt: Scanning Electron Microscopy (SEM)
The scanning electron microscope used was the Hitachi S-3500N variable pressure scanning electron microscope. Samples were mounted and sputtered with gold spray for SEM.
The scanning electron microscope used was the Hitachi S-3500N variable pressure scanning electron microscope. Samples were mounted on aluminium stubs and spluttered with gold spray for SEM.

For the molecule `COc1ccc(C[C@@H](C)NC[C@H](O)c2ccc(O)c(NC=O)c2)cc1.COc1ccc(C[C@@H](C)NC[C@H](O)c2ccc(O)c(NC=O)c2)cc1.O=C(O)/C=C/C(=O)O` [Formoterol fumarate, formoterol fumarate], the “Temperature from which TGA mass loss due to degradation occurs” value in data set [1] is at least 150 °C. In addition, the “Average particle diameter by SEM” value in data set [2] (starting material, not spray dried) is on record as 0.5-5 μm. Take `CC(C)[N+]1(C)[C@@H]2CC[C@H]1CC(OC(=O)C(CO)c1ccccc1)C2.[Br-]` (stereo partly shown) [Ipratropium bromide, ipratropium bromide]: the “Particle diameters by SEM” value in data set [2] is recorded as at least 60 μm. Turning to salbutamol sulphate, the “Particle diameters by SEM” value in data set [2] is on record as below 3 μm.
